Laboratory results: US20170216295A1, “CCR9 ANTAGONIST COMPOUNDS” (Merck Sharp & Dohme Corp., priority 2014, published 2017)
≈ marks a conversion by molar mass, not a printed value. Where two headings read alike, the source gives them in different places.

Key:
CCR9 receptor = biological target: T1, CCR9 receptor (Homo sapiens, UniProt P51686); experiment: Calcium mobilization (Ca FLIPR) assay, antagonist mode vs TECK; type: cell-based; conditions: for IC50: cells expressing CCR9, TECK at EC80 0.01 uM, read-out: CCR9 Ca2+ IC50
T1 sequence (P51686 1-369): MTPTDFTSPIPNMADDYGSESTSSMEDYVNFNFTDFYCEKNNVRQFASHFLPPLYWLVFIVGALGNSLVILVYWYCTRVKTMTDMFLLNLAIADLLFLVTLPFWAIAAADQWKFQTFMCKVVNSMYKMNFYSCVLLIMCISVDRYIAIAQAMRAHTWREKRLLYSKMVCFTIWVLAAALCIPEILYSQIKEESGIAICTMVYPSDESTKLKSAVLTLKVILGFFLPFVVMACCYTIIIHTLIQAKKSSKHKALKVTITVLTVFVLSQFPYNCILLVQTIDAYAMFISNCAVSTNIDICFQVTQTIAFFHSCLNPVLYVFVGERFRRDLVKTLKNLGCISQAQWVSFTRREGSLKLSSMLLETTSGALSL
Procedure: Calcium Mobilization Assay:
Cells expressing CCR9 receptor (MultiSpan, Hayward, Calif.) were seeded in 384-well plates. Ca^2+ assays were conducted after overnight culture in the plates according to the manufacturer's protocol using Screen Quest™ Fluo-8 no wash kit (AAT Bioquest, Sunnyvale, Calif.). Dye loading buffer was added to the cells and incubated for 45 minutes at 37° C. followed by 15 minutes incubation at room temperature. Compounds in the presence of 0.1% DMSO were applied to the cells during calcium flux measurement. Calcium flux was monitored for 90 seconds with compound application after 10 seconds. For antagonist mode, cells were preincubated with the compound at room temperature for 10 minutes before the application of the control agonist TECK (Preprotech, Rocky Hill, N.J.) at EC80 concentration of 0.01 uM obtained from dose-response curves of control agonist.

Molt-4 cells = experiment: Chemotaxis assay of Molt-4 cells towards TECK; type: cell-based; conditions: Homo sapiens; Molt-4 cells in HBSS buffer with 0.1% BSA; TECK at EC80
Procedure: Molt-4 cells were harvested and re-suspended in HBSS buffer with 0.1% BSA or in 100% human serum. Cell suspensions were mixed with compound solutions for 10 min and then seeded onto the upper chamber of the ChemoTX chemotaxis plates with 5 μm pore size polycarbonate membrane from NeuroProbe (Gaithersburg, Md.). EC80 concentration of TECK was applied in the bottom chamber. After 2 hours of incubation at 37° C., the assay was terminated by removing the upper chamber. The cells migrated into the bottom chamber were quantified with CyQUANT solution from Invitrogen (Grand Island, N.Y.).

[1] = Rat liver microsome clearance; type: in vitro ADME; conditions: for RLM CL (rat liver microsome hepatic clearance): first value of RLM/HLM cell; for CLint scaled at 2 μM: rat liver microsomes, read-out: Rat Microsome In Vitro CLint; for CLint scaled at 2 μM / Rat Microsome In Vitro CLint: 1 mg/mL rat hepatic microsomes, NADPH, 2 μM
Procedure: Microsomal In-Vitro Clearance:
The test articles (2 μM) were incubated for one hour in 1 mg/mL rat hepatic microsomes with 2 mM NADPH at 37° C. with aliquots removed at t=0, 15, 30 and 60 minutes. Incubations were terminated at the specified times by protein precipitation, and samples were centrifuged. Resultant supernants were analyzed by LC-MS/MS for the amount of incubated compound remaining, and the half life (t1/2) and intrinsic microsomal clearance rate (CLint) of each compound was calculated.

[2] = Human liver microsome clearance; type: in vitro ADME; conditions: second value of RLM/HLM cell
[3] = pH-solubility (high-throughput, buffers); type: physicochemical; conditions: for Sol. pH 4: 1000 ug compound in 1 mL pH 4 buffer; for Sol. pH 7: 1000 ug compound in 1 mL pH 7 buffer; for Sol. pH 9: 1000 ug compound in 1 mL pH 9 buffer; for solubility at 24 h: aqueous with cosolvent or surfactant or cyclodextrin, kinetic from dmso stock
Procedure: Solubility of representative acidic triazoles was measured in 3 buffer systems (pH 4, 7.4 and 9) using an in-house high-throughput solubility method. A stock solution of test article was prepared in DMA (20 mg/ml) and spiked into each buffer system (20× dilution) to target 1 mg/ml concentration. The samples were vortexed briefly and equilibrated for 24 hr at RT. Samples were then filtered using 0.22u PVDF membrane filters and analyzed for drug concentration using HPLC.

Rat PK (i.v./p.o.) = type: in vivo; conditions: for clearance: iv, read-out: Rat In vivo CL; for Rat In vivo CL: i.v.; for Oral AUC/D: formulation as in Table 6
Procedure: Sprague Dawley Rats (n=3) were dosed both intravenously and orally with a solution formulation followed by plasma collection at time points providing sufficient coverage of the absorption, distribution, metabolism and excretion phases of the test article. Test article concentrations at each time point were determined by LC-MS detected bioanalytical analysis. Non-compartmental pharmacokinetic analysis of the intravenous bioanalytical data provided area under the curve, clearance, volume of distribution, and terminal half life parameters while similar analysis of plasma samples from animals dosed orally provided area under the curve, bio-available fraction and oral terminal half life pharmacokinetic parameters.
Rats (n of 3) were dosed both intravenously and orally with the various compounds. Plasma samples were collected at time points chosen to provide sufficient coverage of the absorption, distribution, metabolism and excretion phases of the test compound. LC-MS detected bioanalytical analysis was performed on the plasma samples utilizing a standard curve and quality control samples to provide enough precision and accuracy to determine the concentrations test article for plasma from each time point. Non-compartmental pharmacokinetic analysis of the intravenous bioanalytical data provided area under the curve, clearance, volume of distribution, terminal half life parameters while similar analysis of plasma samples from animals dosed orally provided area under the curve, bio-available fraction and oral terminal half life pharmacokinetic parameters (see FIG. 1).

[4] = Rat plasma protein binding (equilibrium dialysis); type: in vitro ADME; conditions: for fraction unbound at 6 h: read-out: Rat Plasma Protein Binding (PPB) Fu; for Rat Plasma Protein Binding (PPB) Fu: fraction unbound
Procedure: (§1) Plasma and Microsome Protein Binding:
(§2) Protein binding was measured via high throughput equilibrium dialysis with the HTDialysis device fitted with a 12,000 to 14,000 Da molecular weight cutoff membrane. Rat plasma or 1 mg/mL rat hepatic microsomes spiked with test article were dialyzed vs. phosphate buffer for 6 hours. Aliquots were removed from both sides of the membrane and diluted with equal volumes of the opposite matrix. Following protein precipitation and centrifugation, the resultant matrix matched supernatants were analyzed by LC-MS to compare the plasma or microsome dialysate test article signal to the buffer signal. Test article stability was monitored during the course of the assay.

[5] = Rat microsome protein binding (equilibrium dialysis); type: in vitro ADME; conditions: rat liver microsomes, 1 mg/mL rat hepatic microsomes, read-out: Rat Microsomal Binding Fu
Procedure: as §1, §2

[6] = In-vitro precipitation time in simulated gastric and intestinal fluids; type: physicochemical; conditions: oral dosing solution
Procedure: Dosing solutions at 1 mg/mL for rat PK studies were prepared using either a pH+co-solvent approach or pH+cosolvent+surfactant approach. The total amounts of cosolvent and surfactant used in the solution formulations ranged from 5-8% v/v and q.s. with pH 9 phosphate buffer. Solutions were assessed for their potential for in-vivo precipitation using an in-vitro dilution test (1:1, 1:4 and 1:9) in simulated gastric and intestinal fluids.

Structure (SMILES)	IC50 (CCR9 receptor) [nM]	IC50 (Molt-4 cells) [nM]	RLM CL (rat liver microsome hepatic clearance) [1] [mL/min/kg]	CLint scaled at 2 μM [1] [mL/min/kg]	HLM CL (human liver microsome hepatic clearance) [2] [mL/min/kg]	Sol. pH 4 [3] [ug/mL]	Sol. pH 7 [3] [ug/mL]	Sol. pH 9 [3] [ug/mL]	Rat In vivo CL as % Hepatic Blood Flow (Rat PK (i.v./p.o.)) [%]	clearance (Rat PK (i.v./p.o.); Sprague Dawley, plasma) [mL/min/kg]	fraction unbound at 6 h [4]	fraction unbound at 6 h [5]	Rat Microsome In Vitro CLint [1] [mL/min/kg]	Rat In vivo CL (Rat PK (i.v./p.o.)) [mL/min/kg]	Rat Plasma Protein Binding (PPB) Fu [4]	Oral AUC/D (Rat PK (i.v./p.o.); oral)	further results
CC(C)(C)c1ccc(Cc2c(C3CCC3)nc3ncnn3c2O)cc1 [Compound 27]	5	20	37	111	13	4	58	910	32	17	0.01	0.255	–	–	–	–	–
COCc1nc2nc(C)c(Cc3ccc(C(C)(C)C)cc3)c(O)n2n1 [Compound 41]	–	–	–	–	–	–	–	–	15	–	–	–	171	8	0.010	–	–
COCc1nc2ncnn2c(O)c1Cc1ccc(C(C)(C)C)cc1 [Compound 26]	8	42	48	373	8	3	135	> 1000	10	5	0.01	0.85	–	–	–	–	–
Cc1nc2nc(OCCO)nn2c(O)c1Cc1ccc(C(C)(C)C)cc1 [Compound 42]	–	–	–	–	–	–	–	–	7	–	–	–	373	4	0.010	1.25 ug · hr/ml/(mg/kg)	increase in solubility at pH 4 ([3]; compound 42 vs compound 40): ~7 fold; increase in solubility at pH 7.4 ([3]; compound 42 vs compound 40): ~30 fold; Solubility pH 4 ([3]; pH 4 (Table 6)): 0.045 mg/ml; Solubility pH 7.4 ([3]; pH 7.4 (Table 6)): 0.61 mg/ml; Solubility pH 9 ([3]; pH 9 (Table 6)): 1 mg/ml; increase in oral bioavailability (Rat PK (i.v./p.o.); compound 39 vs compound 6, compound 42 vs compound 40): 3 fold; % F (p.o.) (Rat PK (i.v./p.o.); oral, 6: co-solvent (pH 9), 39, 40, 42: co-solvent + surfactant (pH 9)): 43%
Cc1nc2ncnn2c(O)c1Cc1ccc(C(C)(C)C)cc1 [Compound 6]	–	–	–	717	–	–	–	–	44	24	0.01	0.703	–	–	–	0.08 ug · hr/ml/(mg/kg)	LipE (CCR9 receptor; LipE = pIC50-clogD): 2.4; solubility at 24 h ([3]; pH 4 buffer, pH 4 (Table 6), read-out: Solubility pH 4): 13 µg/mL (≈ 43.9 µM); solubility at 24 h ([3]; pH 7.4 buffer, pH 7.4 (Table 6), read-out: Solubility pH 7.4): 140 µg/mL (≈ 472 µM); solubility at 24 h ([3]; pH 9 buffer, pH 9 (Table 6), read-out: Solubility pH 9): 1000 µg/mL (≈ 3370 µM); In-vitro Precipitation Time (Visual assessment), SGF ([6]; simulated gastric fluid): SGF: 0 min; In-vitro Precipitation Time (Visual assessment), SIF ([6]; simulated intestinal fluid): SIF: 120 min; bioavailability (Rat PK (i.v./p.o.); Sprague Dawley, plasma, oral, 6: co-solvent (pH 9), 39, 40, 42: co-solvent + surfactant (pH 9), read-out: % F (p.o.)): 12%
